Patent publication US7009051B2, “4-(2-pyridyl) piperazines having 5HT7 receptor agonist activity” (Pfizer Inc, priority 2001, dated 2006)
Structures can show the parent of a compound that is named as a salt.

c1cncc(COc2cccc(N3CCNCC3)n2)c1 (as salt: HCl) [II, 1-[6-(Pyridin-3-ylmethoxy)-pyridin-2-yl]-piperazine]
melting point: 141 to 143 °C
